Data taken from patent publication US9303016B2, “Derivatives of aza adamantane and uses thereof” (CONNEXIOS LIFE SCIENCES PVT. LTD., priority 2011, dated 2016).
pIC50: −log10 of the molar value.

Molecular target: T1, human full length HSD11β1 (Homo sapiens, UniProt P28845)
T1 construct: transient expression of human full length HSD11β1 expression vector; host or cells: CHO cells, transient transfection
Experiment: In Vitro HSD11β1 Inhibition Assay
Assay type: cell-based
Conditions: CHO cells transiently expressing human HSD11β1; 200 nM cortisone+500 uM NADPH overnight; cortisone to cortisol by LC/MS-MS; read-out: 11βHSD1 (IC50)
Procedure: In Vitro HSD11β1 Inhibition Assay:
CHO cells were maintained in Dulbecco's modified Eagle's medium/nutrient mixture F-12 containing 5% fetal bovine serum (v/v) and 2 mM glutamine. Cells were cultured at 37° C. with 5% CO2. For transient expression of human full length HSD11β1 expression vector (OriGene Technologies), cells were seeded at a density of 2×10^5 cells/well in a 6-well plate. Transfection was done using Turbofectin8 reagent (OriGene Technologies), according to the protocol provided with the reagent. After 24 hours post-transfection, cells were trypsinized and pooled together before they were re-seeding to 96-well plate at a density of 40000 cells/well. 24 hours after re-seeding, cells were incubated with 200 nM cortisone+500 uM NADPH (or along with small molecule inhibitors) overnight. The enzymatic activity or inhibition of enzyme activity was measured by estimating the conversion of cortisone to cortisol by LC/MS-MS method. The IC50 in nM was calculated from a 8 point log scale of concentration versus inhibition.

T1 sequence (P28845 whole entry): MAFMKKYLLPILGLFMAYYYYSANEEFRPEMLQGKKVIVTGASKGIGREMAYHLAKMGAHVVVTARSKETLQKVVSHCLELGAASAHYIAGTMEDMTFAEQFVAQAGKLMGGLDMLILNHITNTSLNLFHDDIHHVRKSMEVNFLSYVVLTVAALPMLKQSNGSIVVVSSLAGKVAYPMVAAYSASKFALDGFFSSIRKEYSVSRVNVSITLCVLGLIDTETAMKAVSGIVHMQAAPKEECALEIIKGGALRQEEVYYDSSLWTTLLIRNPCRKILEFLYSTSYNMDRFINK

Row | pIC50 | SMILES
1 | < 6.60 | COc1ccc2[nH]cc(C(C)CC(=O)N3C4CC5CC3CC(O)(C5)C4)c2c1 (stereo not drawn) [Compound 109, 1-(5-hydroxy-2-azatricyclo[3.3.1.1^3,7]dec-2-yl)-3-(5-methoxy-1H-indol-3-yl)butan-1-one]
2 | < 6.60 | Cc1ccc2[nH]cc(C(C)CC(=O)N3C4CC5CC3CC(O)(C5)C4)c2c1 (stereo not drawn) [Compound 110, 1-(5-hydroxy-2-azatricyclo[3.3.1.1^3,7]dec-2-yl)-3-(5-methyl-1H-indol-3-yl)butan-1-one]
3 | < 6.60 | O=C(CC(c1ccccc1)c1c[nH]c2cccc(F)c12)N1C2CC3CC1CC(C(=O)O)(C3)C2 (stereo not drawn) [Compound 111, 2-[3-(4-fluoro-1H-indol-3-yl)-3-phenylpropanoyl]-2-azatricyclo[3.3.1.1^3,7]decane-5-carboxylic acid]
4 | 6.60 to 6.70 | O=C(CC(c1ccccc1)c1c[nH]c2cc(F)ccc12)N1C2CC3CC1CC(C(=O)O)(C3)C2 (stereo not drawn) [Compound 112, 2-[3-(6-fluoro-1H-indol-3-yl)-3-phenylpropanoyl]-2-azatricyclo[3.3.1.1^3,7]decane-5-carboxylic acid]
5 | < 6.60 | Cc1[nH]c2ccc(F)cc2c1C(C)CC(=O)N1C2CC3CC1CC(O)(C3)C2 (stereo not drawn) [Compound 113, 3-(5-fluoro-2-methyl-1H-indol-3-yl)-1-(5-hydroxy-2-azatricyclo[3.3.1.1^3,7]dec-2-yl)butan-1-one]
6 | 6.60 to 6.70 | Cc1cccc2[nH]cc(CCC(=O)N3C4CC5CC3CC(O)(C5)C4)c12 [Compound 116, 1-(5-hydroxy-2-azatricyclo[3.3.1.1^3,7]dec-2-yl)-3-(4-methyl-1H-indol-3-yl)propan-1-one]
7 | < 6.60 | COc1cc2c(C(C)CC(=O)N3C4CC5CC3CC(O)(C5)C4)c[nH]c2cc1Cl (stereo not drawn) [Compound 117, 3-(6-chloro-5-methoxy-1H-indol-3-yl)-1-(5-hydroxy-2-azatricyclo[3.3.1.1^3,7]dec-2-yl)butan-1-one]
8 | < 6.60 | CC(CC(=O)N1C2CC3CC1CC(C#N)(C3)C2)c1nc2ccccc2s1 (stereo not drawn) [Compound 118, 2-[3-(1,3-benzothiazol-2-yl)butanoyl]-2-azatricyclo[3.3.1.1^3,7]decane-5-carbonitrile]
9 | > 7.00 | CC(CC(=O)N1C2CC3CC(C2)CC1C3)c1nc2c(Cl)cccc2s1 (stereo not drawn) [Compound 119, 1-(2-azatricyclo[3.3.1.1^3,7]dec-2-yl)-3-(4-chloro-1,3-benzothiazol-2-yl)butan-1-one]
10 | < 6.60 | CC(CC(=O)N1C2CC3CC1CC(O)(C3)C2)c1nc2c(Cl)cccc2s1 (stereo not drawn) [Compound 120, 3-(4-chloro-1,3-benzothiazol-2-yl)-1-(5-hydroxy-2-azatricyclo[3.3.1.1^3,7]dec-2-yl)butan-1-one]
11 | < 6.60 | O=C(CC(c1ccccc1)n1nnc2ccccc21)N1C2CC3CC1CC(O)(C3)C2 (stereo not drawn) [Compound 121, 3-(1H-benzotriazol-1-yl)-1-(5-hydroxy-2-azatricyclo[3.3.1.1^3,7]dec-2-yl)-3-phenylpropan-1-one]
12 | < 6.60 | O=C(O)C1C2CC3CC(C2)N(C(=O)CC(c2cccs2)c2c[nH]c4cccc(F)c24)C1C3 (stereo not drawn) [Compound 122, 2-[3-(4-fluoro-1H-indol-3-yl)-3-(thiophen-2-yl)propanoyl]-2-azatricyclo[3.3.1.1^3,7]decane-4-carboxylic acid]
13 | < 6.60 | CC(CC(=O)N1C2CC3CC1CC(C#N)(C3)C2)c1nc2c(Cl)cccc2s1 (stereo not drawn) [Compound 123, 2-[3-(4-chloro-1,3-benzothiazol-2-yl)butanoyl]-2-azatricyclo[3.3.1.1^3,7]decane-5-carbonitrile]
14 | > 7.00 | O=C(CCc1c[nH]c2cccc(C3CC3)c12)N1C2CC3CC1CC(O)(C3)C2 [Compound 126, 3-(4-cyclopropyl-1H-indol-3-yl)-1-(5-hydroxy-2-azatricyclo[3.3.1.1^3,7]dec-2-yl)propan-1-one]
15 | > 7.00 | O=C(CC(c1cccs1)c1c[nH]c2cccc(F)c12)N1C2CC3CC1CC(O)(C3)C2 (stereo not drawn) [Compound 127, 3-(4-fluoro-1H-indol-3-yl)-1-(5-hydroxy-2-azatricyclo[3.3.1.1^3,7]dec-2-yl)-3-(thiophen-2-yl)propan-1-one]
